# Experimental data from article PMC8286840, “Identifying SARS-CoV-2 antiviral compounds by screening for small molecule inhibitors of Nsp3 papain-like protease” (Biochemical Journal, 2021).
# Counter-ions that a name gives are not always drawn. Like-named read-outs stand apart in the source and are kept apart here. Where a SMILES comes first, the peptide text is derived from it. [ ]: non-standard residue; d: D form. Dolaproine = CO[C@@H]([C@@H]1CCCN1)[C@@H](C)C(=O)O; Dil = CC[C@H](C)[C@H](NC)[C@@H](CC(=O)O)OC; NMeV = CN[C@H](C(=O)O)C(C)C
# Columns and labels:
# [1] = biological target: T1, SARS-CoV-2 PLpro (nsp3 1564–1878) (Severe acute respiratory syndrome coronavirus 2, UniProt P0DTD1); assay: biochemical; set-up: FRET-quenched peptide (Pro3) cleavage by PLpro, 10 min pre-incubation, slope over 20 min, normalised to no-compound control; conditions: read-out: % of control remaining
# [2] = biological target: T1, SARS-CoV-2 PLpro (nsp3 1564–1878); assay: biochemical; set-up: FRET-quenched peptide (Pro3) cleavage by PLpro, 10 min pre-incubation, slope over 20 min, normalised to no-compound control; conditions: read-out: % of control remaining; remark: listed apart in the source
compound,measurement,setting,value
O=C(N[C@H]1CN2CCC1CC2)c1c[nH]c2ccsc2c1=O [MKC-733],remaining activity at 1.25 µM,"[1]; Well no.=5899, low concentration screen",105%
same,remaining activity at 3.75 µM,"[2]; Well no.=5899, high concentration screen",108%
Cc1ccc(S(=O)(=O)n2c(N)nc3ccccc32)cc1 [ML130],remaining activity at 1.25 µM,"[1]; Well no.=4829, low concentration screen",101%
same,remaining activity at 3.75 µM,"[2]; Well no.=4829, high concentration screen",101%
COc1ccc(CNCc2cccc3ccccc23)cc1 [ML133 HCl],remaining activity at 1.25 µM,"[1]; Well no.=4793, low concentration screen",97.9%
same,remaining activity at 3.75 µM,"[2]; Well no.=4793, high concentration screen",96.1%
Cc1cc(NC(=O)CS(=O)(=O)c2cn(Cc3cc(Br)ccc3F)c3ccccc23)no1 [ML169],remaining activity at 1.25 µM,"[1]; Well no.=5507, low concentration screen",99%
same,remaining activity at 3.75 µM,"[2]; Well no.=5507, high concentration screen",97.5%
COC(=O)c1cnn(-c2ccc(F)cc2F)c1/C=N/NC(=S)NC(C)(C)C [ML194],remaining activity at 1.25 µM,"[1]; Well no.=5766, low concentration screen",99.4%
same,remaining activity at 3.75 µM,"[2]; Well no.=5766, high concentration screen",95.8%
CCN1CCN(C(c2ccc(C(F)(F)F)cc2)c2ccc3cccnc3c2O)CC1 (stereo not drawn) [ML311],remaining activity at 1.25 µM,"[1]; Well no.=6532, low concentration screen",99.7%
same,remaining activity at 3.75 µM,"[2]; Well no.=6532, high concentration screen",99.6%
COc1cc2nc(C3CC3)nc(N3CCN(c4ccccc4OC)CC3)c2cc1OC [ML314],remaining activity at 1.25 µM,"[1]; Well no.=7913, low concentration screen",97.1%
same,remaining activity at 3.75 µM,"[2]; Well no.=7913, high concentration screen",98.2%
O=C(NCCCNC(=O)c1ccc[nH]c1=O)c1cc(-c2ccccc2)on1 [ML327],remaining activity at 1.25 µM,"[1]; Well no.=7164, low concentration screen",101%
same,remaining activity at 3.75 µM,"[2]; Well no.=7164, high concentration screen",93.7%
NS(=O)(=O)c1ccc(NC2=CC(=O)c3ccccc3C2=O)cc1 [ML329],remaining activity at 1.25 µM,"[1]; Well no.=8264, low concentration screen",91.6%
same,remaining activity at 3.75 µM,"[2]; Well no.=8264, high concentration screen",90.3%
COc1cccc(CNc2ccc(S(=O)(=O)Nc3nc4ccccc4s3)cc2)c1O [ML355],remaining activity at 1.25 µM,"[1]; Well no.=7648, low concentration screen",97.9%
same,remaining activity at 3.75 µM,"[2]; Well no.=7648, high concentration screen",96.7%
COc1cc(N)c(Cl)cc1C(=O)OCCN1CCCCC1 [ML 10302],remaining activity at 1.25 µM,"[1]; Well no.=5486, low concentration screen",98.8%
same,remaining activity at 3.75 µM,"[2]; Well no.=5486, high concentration screen",100%
"O=S(=O)(c1cccc2c(I)cccc12)N1CCCNCC1 [ML-7, Hydrochloride]",remaining activity at 1.25 µM,"[1]; Well no.=2491, low concentration screen",103%
same,remaining activity at 3.75 µM,"[2]; Well no.=2491, high concentration screen",103%
Cc1ccc(C)c(OCCn2cc(C(=O)O)c3ccccc32)c1 [ML-098],remaining activity at 1.25 µM,[1],98.4%
same,remaining activity at 3.75 µM,[2],97.6%
CCCC(=O)Nc1cccc(NC(=O)c2ccccc2Br)c1 [ML-161],remaining activity at 1.25 µM,"[1]; Well no.=4845, low concentration screen",95%
same,remaining activity at 3.75 µM,"[2]; Well no.=4845, high concentration screen",93%
CC(C)C[C@H](NC(=O)CNC(=O)c1cc(Cl)ccc1Cl)B(O)O [MLN2238],remaining activity at 1.25 µM,"[1]; Well no.=4808, low concentration screen",96.1%
same,remaining activity at 3.75 µM,"[2]; Well no.=4808, high concentration screen",97.1%
O=C(O)c1ccc(Nc2ncc3c(n2)-c2ccc(Cl)cc2C(c2c(F)cccc2F)=NC3)cc1 [MLN8054],remaining activity at 1.25 µM,"[1]; Well no.=4659, low concentration screen",105%
same,remaining activity at 3.75 µM,"[2]; Well no.=4659, high concentration screen",98.1%
CC(C)C[C@H](NC(=O)CNC(=O)c1cc(Cl)ccc1Cl)B1OC(=O)C(CC(=O)O)(CC(=O)O)O1 [MLN9708],remaining activity at 1.25 µM,"[1]; Well no.=4810, low concentration screen",101%
same,remaining activity at 3.75 µM,"[2]; Well no.=4810, high concentration screen",103%
CC[C@H](C)[C@@H]([C@@H](CC(=O)N1CCC[C@H]1[C@H](OC)[C@@H](C)C(=O)N[C@@H](Cc1ccccc1)C(=O)O)OC)N(C)C(=O)[C@@H](NC(=O)[C@@H](NC)C(C)C)C(C)C [MMAF (Hydrochloride)] (H-[NMeV]V[Dil][Dolaproine]F-OH),remaining activity at 1.25 µM,"[1]; Well no.=7650, low concentration screen",89.6%
same,remaining activity at 3.75 µM,"[2]; Well no.=7650, high concentration screen",89.5%
